Assay results published in ChEMBL document CHEMBL3991601, “The target landscape of clinical kinase drugs” (Science, 2017).
The source made the active and inactive calls. Rule as the data show it, for most assays here: actives have a measured Kd and inactives only a lower limit.

Key:
[1] = target: Cyclin-dependent kinase 1 (Homo sapiens, UniProt P06493)
[2] = target: Elongation factor Tu, mitochondrial (Homo sapiens, UniProt P49411)
[3] = target: T1, Pyridoxal kinase (Homo sapiens, UniProt O00764)
T1 sequence (O00764 whole entry): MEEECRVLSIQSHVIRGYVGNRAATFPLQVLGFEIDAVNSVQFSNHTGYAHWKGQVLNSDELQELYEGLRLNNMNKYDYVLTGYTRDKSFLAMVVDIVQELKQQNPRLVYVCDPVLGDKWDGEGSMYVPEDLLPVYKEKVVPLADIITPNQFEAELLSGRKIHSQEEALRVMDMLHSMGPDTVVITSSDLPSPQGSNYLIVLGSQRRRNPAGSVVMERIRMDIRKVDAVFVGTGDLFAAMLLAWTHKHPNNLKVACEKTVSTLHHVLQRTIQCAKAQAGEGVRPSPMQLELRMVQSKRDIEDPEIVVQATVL

[4] = target: T2, Serine/threonine-protein kinase Nek1 (Homo sapiens, UniProt Q96PY6)
T2 sequence (Q96PY6 whole entry): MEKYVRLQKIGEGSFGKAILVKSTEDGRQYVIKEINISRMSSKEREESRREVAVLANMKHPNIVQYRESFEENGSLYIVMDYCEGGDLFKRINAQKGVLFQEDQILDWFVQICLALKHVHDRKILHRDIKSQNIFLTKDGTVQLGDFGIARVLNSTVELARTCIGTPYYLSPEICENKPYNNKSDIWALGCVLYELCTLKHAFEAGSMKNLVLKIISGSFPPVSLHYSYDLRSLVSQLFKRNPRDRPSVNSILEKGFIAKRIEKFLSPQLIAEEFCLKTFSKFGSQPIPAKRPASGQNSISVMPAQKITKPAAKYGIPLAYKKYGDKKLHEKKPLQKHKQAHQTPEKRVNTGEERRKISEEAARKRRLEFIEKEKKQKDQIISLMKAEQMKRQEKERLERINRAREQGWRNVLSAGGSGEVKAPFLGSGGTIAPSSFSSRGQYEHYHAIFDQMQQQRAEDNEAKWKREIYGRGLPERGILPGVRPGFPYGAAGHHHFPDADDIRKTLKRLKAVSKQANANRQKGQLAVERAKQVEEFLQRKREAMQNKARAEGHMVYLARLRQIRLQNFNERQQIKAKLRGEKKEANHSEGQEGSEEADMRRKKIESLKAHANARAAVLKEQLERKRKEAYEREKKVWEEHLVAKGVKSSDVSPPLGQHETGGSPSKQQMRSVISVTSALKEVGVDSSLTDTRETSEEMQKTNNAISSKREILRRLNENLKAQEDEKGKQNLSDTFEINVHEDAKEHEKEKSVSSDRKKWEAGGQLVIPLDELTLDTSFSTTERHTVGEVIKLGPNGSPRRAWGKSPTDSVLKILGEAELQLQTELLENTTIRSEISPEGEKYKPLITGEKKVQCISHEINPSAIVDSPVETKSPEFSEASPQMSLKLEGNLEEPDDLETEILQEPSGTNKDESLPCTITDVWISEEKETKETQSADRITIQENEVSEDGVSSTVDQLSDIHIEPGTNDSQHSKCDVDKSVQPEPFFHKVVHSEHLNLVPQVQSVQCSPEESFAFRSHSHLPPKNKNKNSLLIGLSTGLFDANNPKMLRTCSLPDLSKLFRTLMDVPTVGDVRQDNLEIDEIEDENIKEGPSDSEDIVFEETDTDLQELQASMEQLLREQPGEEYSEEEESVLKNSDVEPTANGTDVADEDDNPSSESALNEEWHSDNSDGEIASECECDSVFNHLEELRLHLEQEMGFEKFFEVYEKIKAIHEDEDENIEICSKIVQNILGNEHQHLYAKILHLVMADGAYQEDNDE

[5] = target: Calcium/calmodulin-dependent protein kinase type II subunit gamma (Homo sapiens, UniProt Q13555)
Chain of Calcium/calmodulin-dependent protein kinase type II subunit gamma (Q13555 whole entry): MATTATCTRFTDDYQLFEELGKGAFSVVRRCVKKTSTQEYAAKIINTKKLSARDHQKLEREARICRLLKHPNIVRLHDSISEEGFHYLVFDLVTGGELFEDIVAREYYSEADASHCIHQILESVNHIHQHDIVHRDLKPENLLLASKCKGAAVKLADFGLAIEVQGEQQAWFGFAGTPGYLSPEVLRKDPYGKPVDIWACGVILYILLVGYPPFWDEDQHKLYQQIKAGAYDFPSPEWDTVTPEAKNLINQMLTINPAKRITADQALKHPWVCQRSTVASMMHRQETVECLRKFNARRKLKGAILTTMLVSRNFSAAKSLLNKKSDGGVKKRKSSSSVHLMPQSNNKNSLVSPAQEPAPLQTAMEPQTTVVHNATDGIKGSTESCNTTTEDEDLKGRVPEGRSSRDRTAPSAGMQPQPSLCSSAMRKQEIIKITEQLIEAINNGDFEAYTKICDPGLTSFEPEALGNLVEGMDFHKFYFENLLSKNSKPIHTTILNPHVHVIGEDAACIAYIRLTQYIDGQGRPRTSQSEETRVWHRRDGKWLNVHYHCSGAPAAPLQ

[6] = target: Serine/threonine-protein kinase PAK 4 (Homo sapiens, UniProt O96013)
Chain of Serine/threonine-protein kinase PAK 4 (O96013 whole entry, the tested form may be a part): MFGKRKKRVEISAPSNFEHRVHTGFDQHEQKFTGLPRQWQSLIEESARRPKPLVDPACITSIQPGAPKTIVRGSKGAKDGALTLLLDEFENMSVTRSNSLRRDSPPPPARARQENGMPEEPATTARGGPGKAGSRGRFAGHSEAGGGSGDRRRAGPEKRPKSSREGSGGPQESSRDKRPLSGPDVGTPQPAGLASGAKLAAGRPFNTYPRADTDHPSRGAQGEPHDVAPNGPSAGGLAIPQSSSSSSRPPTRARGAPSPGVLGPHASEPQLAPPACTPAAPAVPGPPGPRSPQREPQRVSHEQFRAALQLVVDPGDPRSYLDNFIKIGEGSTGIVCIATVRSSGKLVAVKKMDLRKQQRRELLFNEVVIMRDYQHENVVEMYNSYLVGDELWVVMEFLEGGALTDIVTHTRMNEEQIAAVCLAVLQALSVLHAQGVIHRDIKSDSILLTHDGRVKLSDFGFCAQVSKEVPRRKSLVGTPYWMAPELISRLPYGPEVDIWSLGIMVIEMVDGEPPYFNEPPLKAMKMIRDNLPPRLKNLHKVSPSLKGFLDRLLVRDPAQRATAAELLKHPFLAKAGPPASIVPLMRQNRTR

[7] = target: LIM domain kinase 1 (Homo sapiens, UniProt P53667)
Chain of LIM domain kinase 1 (P53667 whole entry, the tested form may be a part): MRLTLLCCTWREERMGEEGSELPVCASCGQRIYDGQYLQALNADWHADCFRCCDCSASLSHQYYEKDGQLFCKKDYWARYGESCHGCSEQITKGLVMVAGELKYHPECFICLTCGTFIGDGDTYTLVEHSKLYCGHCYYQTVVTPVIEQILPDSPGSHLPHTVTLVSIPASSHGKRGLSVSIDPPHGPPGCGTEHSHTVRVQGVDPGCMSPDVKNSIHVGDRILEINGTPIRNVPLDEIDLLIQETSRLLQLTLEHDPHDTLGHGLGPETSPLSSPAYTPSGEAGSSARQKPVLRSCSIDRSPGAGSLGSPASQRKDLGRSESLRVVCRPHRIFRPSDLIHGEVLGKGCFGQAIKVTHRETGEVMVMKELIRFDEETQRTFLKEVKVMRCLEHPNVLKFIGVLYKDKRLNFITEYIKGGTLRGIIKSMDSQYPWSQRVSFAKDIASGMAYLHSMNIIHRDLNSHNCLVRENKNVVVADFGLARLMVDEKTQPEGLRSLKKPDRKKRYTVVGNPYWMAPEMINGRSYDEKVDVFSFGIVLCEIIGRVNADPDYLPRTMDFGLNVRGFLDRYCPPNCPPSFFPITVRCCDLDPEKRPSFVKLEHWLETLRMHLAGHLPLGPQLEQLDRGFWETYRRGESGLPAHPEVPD

[8] = target: Ribosomal protein S6 kinase alpha-1 (Homo sapiens, UniProt Q15418)
Chain of Ribosomal protein S6 kinase alpha-1 (Q15418 whole entry): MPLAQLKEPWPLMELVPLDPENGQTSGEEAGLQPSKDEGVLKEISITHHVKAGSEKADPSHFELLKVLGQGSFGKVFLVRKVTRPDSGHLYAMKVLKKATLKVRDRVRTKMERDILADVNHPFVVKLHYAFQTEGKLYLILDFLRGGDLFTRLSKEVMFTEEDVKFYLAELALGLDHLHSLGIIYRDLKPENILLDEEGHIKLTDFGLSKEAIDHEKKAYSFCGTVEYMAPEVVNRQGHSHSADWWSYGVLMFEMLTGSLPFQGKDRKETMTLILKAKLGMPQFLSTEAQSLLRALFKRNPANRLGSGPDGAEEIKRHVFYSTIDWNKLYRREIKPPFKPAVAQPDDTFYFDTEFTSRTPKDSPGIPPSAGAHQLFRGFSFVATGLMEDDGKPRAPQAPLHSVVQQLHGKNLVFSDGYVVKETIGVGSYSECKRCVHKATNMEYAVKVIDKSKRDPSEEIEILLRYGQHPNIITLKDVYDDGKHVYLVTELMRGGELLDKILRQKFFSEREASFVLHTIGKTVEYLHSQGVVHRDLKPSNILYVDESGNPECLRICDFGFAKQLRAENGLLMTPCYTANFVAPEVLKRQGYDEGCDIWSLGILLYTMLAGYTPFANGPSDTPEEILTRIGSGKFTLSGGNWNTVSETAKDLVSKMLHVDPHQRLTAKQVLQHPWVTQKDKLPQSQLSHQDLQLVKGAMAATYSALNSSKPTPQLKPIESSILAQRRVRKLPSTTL

[9] = target: T3, Mitogen-activated protein kinase kinase kinase kinase 2 (Homo sapiens, UniProt Q12851)
T3 sequence (Q12851 whole entry): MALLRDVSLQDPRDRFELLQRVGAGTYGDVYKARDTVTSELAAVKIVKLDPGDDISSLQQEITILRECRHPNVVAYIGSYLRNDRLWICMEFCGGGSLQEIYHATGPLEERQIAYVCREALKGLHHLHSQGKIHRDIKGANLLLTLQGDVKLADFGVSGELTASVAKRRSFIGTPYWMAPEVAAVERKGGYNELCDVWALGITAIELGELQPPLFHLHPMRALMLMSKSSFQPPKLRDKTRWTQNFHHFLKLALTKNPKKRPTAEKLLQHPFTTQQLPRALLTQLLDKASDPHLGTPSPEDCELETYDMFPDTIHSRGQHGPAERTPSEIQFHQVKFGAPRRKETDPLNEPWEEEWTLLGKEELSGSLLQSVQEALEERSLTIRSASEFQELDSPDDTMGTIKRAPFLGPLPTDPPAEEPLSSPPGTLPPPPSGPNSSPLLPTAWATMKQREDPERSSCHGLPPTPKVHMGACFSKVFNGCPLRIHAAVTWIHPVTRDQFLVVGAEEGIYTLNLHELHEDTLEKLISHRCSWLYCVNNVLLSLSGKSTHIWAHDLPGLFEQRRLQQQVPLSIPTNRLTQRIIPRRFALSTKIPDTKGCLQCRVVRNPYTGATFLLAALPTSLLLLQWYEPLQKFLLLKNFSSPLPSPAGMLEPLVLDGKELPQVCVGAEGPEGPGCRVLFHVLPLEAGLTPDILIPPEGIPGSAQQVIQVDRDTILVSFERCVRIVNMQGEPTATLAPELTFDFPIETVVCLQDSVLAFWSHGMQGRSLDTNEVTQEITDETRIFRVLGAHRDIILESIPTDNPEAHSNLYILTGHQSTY
Also: in the data inactive means no Kd found up to 30 µM.

Chain of Cyclin-dependent kinase 1 (P06493 whole entry): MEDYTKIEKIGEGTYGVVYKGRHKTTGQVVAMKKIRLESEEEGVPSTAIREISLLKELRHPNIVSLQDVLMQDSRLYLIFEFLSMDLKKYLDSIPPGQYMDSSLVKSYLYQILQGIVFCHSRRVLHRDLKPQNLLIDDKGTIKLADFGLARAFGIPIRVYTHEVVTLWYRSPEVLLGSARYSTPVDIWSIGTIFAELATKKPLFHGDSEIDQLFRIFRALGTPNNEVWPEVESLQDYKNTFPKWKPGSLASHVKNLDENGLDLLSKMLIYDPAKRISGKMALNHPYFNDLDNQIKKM

Kd [1]	Kd [2]	Kd [3]	Kd [4]	Kd [5]	Kd [6]	Kd [7]	Kd [8]	Kd [9]	Structure (SMILES)
> 30 µM (inactive)	> 30 µM (inactive)	> 30 µM (inactive)							C[C@@H](Oc1cc(-n2cnc3ccc(CN4CCN(C)CC4)cc32)sc1C(N)=O)c1ccccc1C(F)(F)F [GSK-461364]
> 30 µM (inactive)	> 30 µM (inactive)	> 30 µM (inactive)	> 30 µM (inactive)	> 30 µM (inactive)	> 30 µM (inactive)	> 30 µM (inactive)		> 30 µM (inactive)	CCn1cc(-c2ccnc3[nH]c(-c4cccc(CN(C)C)c4)cc23)c(-c2ccc(NC(=O)N(C)C)cc2)n1 [GSK-1070916]
	> 30 µM (inactive)	> 30 µM (inactive)	> 30 µM (inactive)						NC(=O)c1c(OCc2c(F)cc(Br)cc2F)nsc1NC(=O)NCCCCN1CCCC1 [OSI-632]
> 30 µM (inactive)	> 30 µM (inactive)	> 30 µM (inactive)	> 30 µM (inactive)	0.275 µM (active)		> 30 µM (inactive)	0.82 µM (active)	> 30 µM (inactive)	Cc1nc(Nc2n[nH]c3c2CN(C(=O)N[C@H](CN(C)C)c2ccccc2)C3(C)C)c2sccc2n1 [PF-03758309]
	> 30 µM (inactive)	> 30 µM (inactive)	> 30 µM (inactive)				2.41 µM (active)		CC(=O)NCC(=O)N1[C@@H]2CC[C@H]1c1ccc(Nc3ncc(C(F)(F)F)c(NC4CCC4)n3)cc12 [PF-03814735]
> 30 µM (inactive)	> 30 µM (inactive)	> 30 µM (inactive)							O=C(NOCCO)c1cc(CN2OCCCC2=O)c(F)c(F)c1Nc1ccc(I)cc1F [RO-4987655]
> 30 µM (inactive)	> 30 µM (inactive)	> 30 µM (inactive)	> 30 µM (inactive)	> 30 µM (inactive)	> 30 µM (inactive)	> 30 µM (inactive)		> 30 µM (inactive)	CCS(=O)(=O)c1cccc(-c2cc(C(=O)NC3CCN(C)CC3)c(C)c3[nH]c4ncc(C)cc4c23)c1 [TAK-901]

Second part, the compound before the results:

Structure (SMILES)	Kd [1]	Kd [2]	Kd [3]	Kd [4]	Kd [5]	Kd [6]	Kd [7]	Kd [8]	Kd [9]
CC(=O)c1cnc2ccc(-c3cc(Cl)c(O)c(Cl)c3)nc2c1N[C@H]1CC[C@H](CN(C)C)CC1	0.288 µM (active)	> 30 µM (inactive)	> 30 µM (inactive)	> 30 µM (inactive)	> 30 µM (inactive)	0.515 µM (active)	> 30 µM (inactive)	0.251 µM (active)	
CCNC(=O)C#Cc1ccc2c(c1)NC(=O)/C2=C(\Nc1ccc(CN(C)C)cc1)c1ccccc1	> 30 µM (inactive)	> 30 µM (inactive)	> 30 µM (inactive)	> 30 µM (inactive)	> 30 µM (inactive)	> 30 µM (inactive)	> 30 µM (inactive)	0.799 µM (active)	> 30 µM (inactive)
C=CC(=O)N1CCC[C@H](n2c(=O)n(-c3ccc(Oc4ccccc4)cc3)c3c(N)ncnc32)C1	> 30 µM (inactive)	> 30 µM (inactive)	> 30 µM (inactive)	> 30 µM (inactive)	> 30 µM (inactive)	> 30 µM (inactive)	> 30 µM (inactive)	> 30 µM (inactive)	> 30 µM (inactive)
Cc1nc2cc(-c3nn(C(C)C)c4ncnc(N)c34)ccc2o1	> 30 µM (inactive)	> 30 µM (inactive)	> 30 µM (inactive)	> 30 µM (inactive)	> 30 µM (inactive)	> 30 µM (inactive)	1.85 µM (active)	> 30 µM (inactive)	15.9 µM (active)
COCc1c(-c2ccc(NC(=O)Nc3cc(C(F)(F)F)ccc3F)c(F)c2)c2c(N)ncnn2c1CN1CCOCC1	> 30 µM (inactive)	> 30 µM (inactive)	> 30 µM (inactive)	> 30 µM (inactive)	> 30 µM (inactive)	> 30 µM (inactive)	> 30 µM (inactive)	4.13 µM (active)	4.16 µM (active)
COc1cc(Nc2ncc3c(n2)-c2ccc(Cl)cc2C(c2c(F)cccc2OC)=NC3)ccc1C(=O)O [ALISERTIB]		> 30 µM (inactive)	> 30 µM (inactive)	> 30 µM (inactive)				> 30 µM (inactive)	
O=C(Nc1c[nH]nc1-c1nc2cc(CN3CCOCC3)ccc2[nH]1)NC1CC1 [AT-9283]	> 30 µM (inactive)	> 30 µM (inactive)	> 30 µM (inactive)	> 30 µM (inactive)	> 30 µM (inactive)				> 30 µM (inactive)
CNC(=O)c1ccccc1Sc1ccc2c(/C=C/c3ccccn3)n[nH]c2c1 [AXITINIB]	> 30 µM (inactive)	> 30 µM (inactive)	> 30 µM (inactive)						
CC(C)(C)c1nc(-c2cccc(NS(=O)(=O)c3c(F)cccc3F)c2F)c(-c2ccnc(N)n2)s1 [DABRAFENIB]	0.364 µM (active)	> 30 µM (inactive)	> 30 µM (inactive)		> 30 µM (inactive)	> 30 µM (inactive)	0.033 µM (active)		> 30 µM (inactive)
Cn1cc(C2=C(c3cn(C4CCN(Cc5ccccn5)CC4)c4ccccc34)C(=O)NC2=O)c2ccccc21 [ENZASTAURIN]	> 30 µM (inactive)	> 30 µM (inactive)	> 30 µM (inactive)						
O=C(Nc1cc(C(F)(F)F)cc(C(F)(F)F)c1)c1cc(Cl)ccc1O [IMD-0354]		> 30 µM (inactive)	> 30 µM (inactive)	> 30 µM (inactive)	> 30 µM (inactive)	> 30 µM (inactive)		> 30 µM (inactive)	> 30 µM (inactive)
Cc1[nH]c(/C=C2\C(=O)Nc3ccccc32)c(C)c1CCC(=O)O [ORANTINIB]		> 30 µM (inactive)	> 30 µM (inactive)	> 30 µM (inactive)					
CCOc1cc2ncc(C#N)c(Nc3ccc(F)c(Cl)c3)c2cc1NC(=O)/C=C/CN(C)C [PELITINIB]	> 30 µM (inactive)	> 30 µM (inactive)	> 30 µM (inactive)		> 30 µM (inactive)	> 30 µM (inactive)	> 30 µM (inactive)	> 30 µM (inactive)	2.28 µM (active)
N#CC[C@H](C1CCCC1)n1cc(-c2ncnc3[nH]ccc23)cn1 [RUXOLITINIB]	> 30 µM (inactive)	> 30 µM (inactive)	> 30 µM (inactive)		0.259 µM (active)				
